Results: US9409952B2, “Peptide-compound cyclization method” (Chugai Seiyaku Kabushiki Kaisha, priority 2011, dated 2016)
Starred links: 1 amine or outer side, 2 acyl side, 3 side chain; linkers in the order of their positions; H or OH if unused. Positions of bridges follow the written chain, without caps; N, C: chain ends. Non-standard residues stand in square brackets, D forms with d. Residues, ends and D or L forms follow the SMILES beside them. *: point of attachment. Phe(4-(CH2)5CO) = O=C([C@H](Cc1ccc(CCCCCC(=O)[*:3])cc1)N[*:1])[*:2]; Phe(3-(CH2)4CO) = O=C([C@H](Cc1cccc(CCCCC(=O)[*:3])c1)N[*:1])[*:2]; NMeF = CN[C@@H](Cc1ccccc1)C(=O)O; NMeI = CC[C@H](C)[C@H](NC)C(=O)O; NMeL = CN[C@@H](CC(C)C)C(=O)O; NMeV = CN[C@H](C(=O)O)C(C)C; NMeA = CN[C@@H](C)C(=O)O; Piperidide = C1CCN(*)CC1; tBu = CC(C)(C)*

Key:
[1] = PAMPA (parallel artificial membrane permeability assay); format: in vitro ADME; conditions: membrane permeation rate (Pe), 50 mM MOPSO buffer pH 6.5 with 5.0% glycocholic acid, 37° C., 18 hours; for Papp at 18 hours, 50 µM: PAMPA, read-out: iPAMPA Pe
Outline: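 Artificial membrane was 10% (w/v) egg lecithin plus 0.5% (w/v) cholesterol in dodecane on a PVDF filter. A 10 mM DMSO stock was added at 0.5% (v/v) to donor buffer (50 mM MOPSO, pH 6.5, 5.0% glycocholic acid). After 18 h at 37 °C, LC/MS or LC/UV gave donor and acceptor levels for Pe.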

[2] = Metabolic stability in human hepatic microsome; format: in vitro ADME; conditions: microsomes, pH 7.4; human hepatic microsome, NADPH(+); read-out: CL NADPH(+)

| SMILES | Papp at 18 hours, 50 µM [1] [×10⁻⁶ cm/s] | microsomal CLint at 1 uM [2] [µL/min/mg] | iPAMPA Pe [1] |
| --- | --- | --- | --- |
| CC[C@H](C)[C@H]1C(=O)N[C@@H](C)C(=O)N(C)[C@@H](Cc2ccccc2)C(=O)N[C@@H]([C@@H](C)O)C(=O)N(C)[C@@H](CC(C)C)C(=O)N[C@@H](Cc2ccccc2)C(=O)N(C)[C@@H](C(C)C)C(=O)N[C@H](C(=O)N2CCCCC2)Cc2ccc(cc2)CCCCCC(=O)NCC(=O)N(C)[C@@H](CC(C)C)C(=O)N1C [DP-865] (G[NMeL][NMeI]A[NMeF]T[NMeL]F[NMeV][Phe(4-(CH2)5CO)]-Piperidide; lactam N-10) | 15 | 87 |  |
| CC[C@H](C)[C@@H]1NC(=O)CCCCCc2ccc(cc2)C[C@@H](C(=O)N2CCCCC2)NC(=O)[C@H](Cc2ccccc2)N(C)C(=O)[C@H](CC(C)C)N(C)C(=O)[C@H](C)N(C)C(=O)[C@H](Cc2ccccc2)N(C)C(=O)[C@H]([C@@H](C)O)NC(=O)[C@H](CC(C)C)N(C)C(=O)[C@H](C)N(C)C(=O)[C@H](CC(C)C)N(C)C1=O [DP-868] (I[NMeL][NMeA][NMeL]T[NMeF][NMeA][NMeL][NMeF][Phe(4-(CH2)5CO)]-Piperidide; lactam N-10) | 0.24 | 61 |  |
| C=C1CCC(=O)N[C@@H](CC(C)C)C(=O)N2CCC[C@H]2C(=O)N(C)[C@@H](C(C)C)C(=O)N[C@@H](Cc2ccccc2)C(=O)N(C)[C@@H](Cc2ccccc2)C(=O)N(C)[C@@H](CC(C)C)C(=O)N[C@@H](C)C(=O)N(C)[C@@H]([C@@H](C)CC)C(=O)N[C@H](C(=O)N2CCCCC2)Cc2ccc1cc2 [DP-869] | 0.86 | 331 |  |
| CC[C@H](C)[C@H]1C(=O)N[C@H](C(=O)N2CCCCC2)Cc2ccc(cc2)CCCCCC(=O)N[C@@H](CC(C)C)C(=O)N2CCC[C@H]2C(=O)N(C)[C@@H](C(C)C)C(=O)N[C@@H](Cc2ccccc2)C(=O)N(C)[C@@H](Cc2ccccc2)C(=O)N(C)[C@@H](CC(C)C)C(=O)N[C@@H](C)C(=O)N1C [DP-871] (LP[NMeV]F[NMeF][NMeL]A[NMeI][Phe(4-(CH2)5CO)]-Piperidide; lactam N-9) | 1.2 | 389 |  |
| CC[C@H](C)[C@H]1C(=O)N[C@H](C(=O)N2CCCCC2)Cc2cccc(c2)CCCCC(=O)N[C@@H](CC(C)C)C(=O)N2CCC[C@H]2C(=O)N(C)[C@@H](C(C)C)C(=O)N[C@@H](Cc2ccccc2)C(=O)N(C)[C@@H](Cc2ccccc2)C(=O)N(C)[C@@H](CC(C)C)C(=O)N[C@@H](C)C(=O)N1C [DP-872] (LP[NMeV]F[NMeF][NMeL]A[NMeI][Phe(3-(CH2)4CO)]-Piperidide; lactam N-9) | 3.1 | 397 |  |
| CC[C@H](C)[C@H]1C(=O)N[C@@H](C)C(=O)N(C)[C@@H](CC(C)C)C(=O)N[C@@H](COC(C)(C)C)C(=O)N(C)[C@@H](CC(C)C)C(=O)N[C@H](C(=O)N2CCCCC2)Cc2ccc(cc2)CCCCCC(=O)N[C@@H](Cc2ccccc2)C(=O)N(C)[C@@H](Cc2ccccc2)C(=O)N(C)[C@@H](CC(C)C)C(=O)N[C@@H]([C@@H](C)O)C(=O)N(C)[C@@H](C)C(=O)N1C [DP-873] (F[NMeF][NMeL]T[NMeA][NMeI]A[NMeL]S(tBu)[NMeL][Phe(4-(CH2)5CO)]-Piperidide; lactam N-11) |  | 39 | 1.0E−07 |
| CC[C@H](C)[C@H]1C(=O)N[C@@H](C)C(=O)N(C)[C@@H](CC(C)C)C(=O)N[C@@H](COC(C)(C)C)C(=O)N(C)[C@@H](CC(C)C)C(=O)N[C@H](C(=O)N2CCCCC2)Cc2cccc(c2)CCCCC(=O)N[C@@H](Cc2ccccc2)C(=O)N(C)[C@@H](Cc2ccccc2)C(=O)N(C)[C@@H](CC(C)C)C(=O)N[C@@H]([C@@H](C)O)C(=O)N(C)[C@@H](C)C(=O)N1C [DP-874] (F[NMeF][NMeL]T[NMeA][NMeI]A[NMeL]S(tBu)[NMeL][Phe(3-(CH2)4CO)]-Piperidide; lactam N-11) | 0.15 | 48 |  |
